Test system: 276233-004-R-J1-PDC complex spheroid viability
Assay: Anticancer human tumor 276233-004-R-J1-PDC patient-derived colon adenocarcinoma cell line growth inhibition [GQUAD]
Conditions: for IC50: curve of first compound; for viability, T/C: stronger effect = lower value
In short: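 Tumor cells were grown as complex spheroids with HUVEC endothelial cells and mesenchymal stem cells as stroma. G-quadruplex stabilizers were combined with targeted agents over half-log dilutions from near the clinical Cmax, or from 10 microM.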

[1] = second compound 0.0316 µM, first compound 0.0316 µM
[2] = second compound 0.0316 µM, first compound 0.1 µM
[3] = second compound 0.0316 µM, first compound 0.316 µM
[4] = second compound 0.0316 µM, first compound 1 µM
[5] = second compound 0.0316 µM, first compound 3.16 µM
[6] = second compound 0.0316 µM, first compound 10 µM
[7] = second compound 0.1 µM, first compound 0.0316 µM
[8] = second compound 0.1 µM, first compound 0.1 µM
[9] = second compound 0.1 µM, first compound 0.316 µM
[10] = second compound 0.1 µM, first compound 1 µM
[11] = second compound 0.1 µM, first compound 3.16 µM
[12] = second compound 0.1 µM, first compound 10 µM
[13] = second compound 0.316 µM, first compound 0.0316 µM
[14] = second compound 0.316 µM, first compound 0.1 µM
[15] = second compound 0.316 µM, first compound 0.316 µM
[16] = second compound 0.316 µM, first compound 1 µM
[17] = second compound 0.316 µM, first compound 3.16 µM
[18] = second compound 0.316 µM, first compound 10 µM
[19] = second compound 1 µM, first compound 0.0316 µM
[20] = second compound 1 µM, first compound 0.1 µM
[21] = second compound 1 µM, first compound 0.316 µM
[22] = second compound 1 µM, first compound 1 µM
[23] = second compound 1 µM, first compound 3.16 µM
[24] = second compound 1 µM, first compound 10 µM
[25] = second compound 3.16 µM, first compound 0.0316 µM
[26] = second compound 3.16 µM, first compound 0.1 µM
[27] = second compound 3.16 µM, first compound 0.316 µM
[28] = second compound 3.16 µM, first compound 1 µM
[29] = second compound 3.16 µM, first compound 3.16 µM
[30] = second compound 3.16 µM, first compound 10 µM
[31] = second compound 10 µM, first compound 0.0316 µM
[32] = second compound 10 µM, first compound 0.1 µM
[33] = second compound 10 µM, first compound 0.316 µM
[34] = second compound 10 µM, first compound 1 µM
[35] = second compound 10 µM, first compound 3.16 µM
[36] = second compound 10 µM, first compound 10 µM
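Also: spheroids exposed to drugs for seven days.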
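For viability, T/C in this document: 100% = DMSO vehicle control viability.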

COc1ncnc(C2CC2)c1-c1ncc2cnn(Cc3ccc(-c4nc(C(F)(F)F)cn4C(C)C)cc3)c2n1 + Cc1[nH]c2ccc(F)cc2c1-c1nc2c3cccnc3c3ncccc3c2[nH]1
IC50 (second compound 0.0316 µM): > 10 µM
IC50 (second compound 0.1 µM): > 10 µM
IC50 (second compound 0.316 µM): > 10 µM
IC50 (second compound 1 µM): 0.886 µM
IC50 (second compound 3.16 µM): < 0.0316 µM
IC50 (second compound 10 µM): < 0.0316 µM
viability, T/C [1]: 87.2%
viability, T/C [2]: 81.3%
viability, T/C [3]: 79.2%
viability, T/C [4]: 76.4%
viability, T/C [5]: 80.4%
viability, T/C [6]: 76.2%
viability, T/C [7]: 75.5%
viability, T/C [8]: 79.2%
viability, T/C [9]: 63.5%
viability, T/C [10]: 75.7%
viability, T/C [11]: 66.6%
viability, T/C [12]: 71%
viability, T/C [13]: 70%
viability, T/C [14]: 63.3%
viability, T/C [15]: 83.6%
viability, T/C [16]: 53.4%
viability, T/C [17]: 73%
viability, T/C [18]: 72%
viability, T/C [19]: 58%
viability, T/C [20]: 42.3%
viability, T/C [21]: 57.8%
viability, T/C [22]: 51.4%
viability, T/C [23]: 48.3%
viability, T/C [24]: 45.3%
viability, T/C [25]: 18.7%
viability, T/C [26]: 16.2%
viability, T/C [27]: 15.2%
viability, T/C [28]: 14.9%
viability, T/C [29]: 12.7%
viability, T/C [30]: 20.7%
viability, T/C [31]: 34.3%
viability, T/C [32]: 29.5%
viability, T/C [33]: 47.7%
viability, T/C [34]: 31.4%
viability, T/C [35]: 27.4%
viability, T/C [36]: 33.6%

C=CCn1c(=O)c2cnc(Nc3ccc(N4CCN(C)CC4)cc3)nc2n1-c1cccc(C(C)(C)O)n1 + CN(C)c1ccc(Nc2c3ccc(NC(=O)CCN4CCCC4)cc3nc3cc(NC(=O)CCN4CCCC4)ccc23)cc1
IC50 (second compound 0.0316 µM): > 10 µM
IC50 (second compound 0.1 µM): > 10 µM
IC50 (second compound 0.316 µM): > 10 µM
IC50 (second compound 1 µM): < 0.0316 µM
IC50 (second compound 3.16 µM): 0.459 µM
IC50 (second compound 10 µM): < 0.0316 µM
viability, T/C [1]: 87.6%
viability, T/C [2]: 86.2%
viability, T/C [3]: 66.3%
viability, T/C [4]: 68.4%
viability, T/C [5]: 68.6%
viability, T/C [6]: 88.7%
viability, T/C [7]: 81.6%
viability, T/C [8]: 80.5%
viability, T/C [9]: 49%
viability, T/C [10]: 64.7%
viability, T/C [11]: 53.2%
viability, T/C [12]: 67.9%
viability, T/C [13]: 81.5%
viability, T/C [14]: 67.3%
viability, T/C [15]: 54.6%
viability, T/C [16]: 51.6%
viability, T/C [17]: 54.8%
viability, T/C [18]: 75%
viability, T/C [19]: 47.1%
viability, T/C [20]: 56.2%
viability, T/C [21]: 49.7%
viability, T/C [22]: 42.5%
viability, T/C [23]: 54.7%
viability, T/C [24]: 74%
viability, T/C [25]: 56.9%
viability, T/C [26]: 52.5%
viability, T/C [27]: 57.2%
viability, T/C [28]: 38.1%
viability, T/C [29]: 52.1%
viability, T/C [30]: 40.2%
viability, T/C [31]: 41.4%
viability, T/C [32]: 45.5%
viability, T/C [33]: 53.8%
viability, T/C [34]: 38.9%
viability, T/C [35]: 47.9%
viability, T/C [36]: 54.6%

CC1COCCN1c1cc(C2(S(C)(=N)=O)CC2)nc(-c2ccnc3[nH]ccc23)n1 (stereo not given) + Cc1cnc(CNC(=O)c2c(=O)c3ccc(N4CCCN(C)CC4)nc3n3c2sc2ccccc23)cn1
IC50 (second compound 0.0316 µM): > 10 µM
IC50 (second compound 0.1 µM): > 10 µM
IC50 (second compound 0.316 µM): > 10 µM
IC50 (second compound 1 µM): > 10 µM
IC50 (second compound 3.16 µM): 5.9 µM
IC50 (second compound 10 µM): > 10 µM
viability, T/C [1]: 99%
viability, T/C [2]: 72.1%
viability, T/C [3]: 90.8%
viability, T/C [4]: 77.4%
viability, T/C [5]: 75.3%
viability, T/C [6]: 60.2%
viability, T/C [7]: 82%
viability, T/C [8]: 76.5%
viability, T/C [9]: 76%
viability, T/C [10]: 92.6%
viability, T/C [11]: 80.2%
viability, T/C [12]: 64.5%
viability, T/C [13]: 75.2%
viability, T/C [14]: 87.8%
viability, T/C [15]: 83.5%
viability, T/C [16]: 78.2%
viability, T/C [17]: 79.1%
viability, T/C [18]: 58.6%
viability, T/C [19]: 75.8%
viability, T/C [20]: 72.3%
viability, T/C [21]: 72.9%
viability, T/C [22]: 58.7%
viability, T/C [23]: 70.9%
viability, T/C [24]: 53%
viability, T/C [25]: 64.5%
viability, T/C [26]: 67.6%
viability, T/C [27]: 75.4%
viability, T/C [28]: 69.3%
viability, T/C [29]: 57%
viability, T/C [30]: 41.9%
viability, T/C [31]: 63.3%
viability, T/C [32]: 66%
viability, T/C [33]: 73%
viability, T/C [34]: 58.8%
viability, T/C [35]: 65%
viability, T/C [36]: 42.8%

CC1COCCN1c1cc(C2(S(C)(=N)=O)CC2)nc(-c2ccnc3[nH]ccc23)n1 (stereo not given) + CN(C)c1ccc(Nc2c3ccc(NC(=O)CCN4CCCC4)cc3nc3cc(NC(=O)CCN4CCCC4)ccc23)cc1
IC50 (second compound 0.0316 µM): > 10 µM
IC50 (second compound 0.1 µM): > 10 µM
IC50 (second compound 0.316 µM): 4.01 µM
IC50 (second compound 1 µM): 1.96 µM
IC50 (second compound 3.16 µM): 3.16 µM
IC50 (second compound 10 µM): < 0.0316 µM
viability, T/C [1]: 97.8%
viability, T/C [2]: 91%
viability, T/C [3]: 89.8%
viability, T/C [4]: 81.3%
viability, T/C [5]: 66.7%
viability, T/C [6]: 67.4%
viability, T/C [7]: 95.1%
viability, T/C [8]: 84.5%
viability, T/C [9]: 75.2%
viability, T/C [10]: 65.5%
viability, T/C [11]: 74.6%
viability, T/C [12]: 66.9%
viability, T/C [13]: 74.5%
viability, T/C [14]: 75.7%
viability, T/C [15]: 47.8%
viability, T/C [16]: 64%
viability, T/C [17]: 59%
viability, T/C [18]: 39.8%
viability, T/C [19]: 65.8%
viability, T/C [20]: 47.6%
viability, T/C [21]: 59.5%
viability, T/C [22]: 52.9%
viability, T/C [23]: 50.1%
viability, T/C [24]: 43.9%
viability, T/C [25]: 58.4%
viability, T/C [26]: 61.5%
viability, T/C [27]: 63.1%
viability, T/C [28]: 46.4%
viability, T/C [29]: 52.7%
viability, T/C [30]: 55.6%
viability, T/C [31]: 36.8%
viability, T/C [32]: 45.5%
viability, T/C [33]: 33.7%
viability, T/C [34]: 52.5%
viability, T/C [35]: 37.2%
viability, T/C [36]: 71.4%

Cc1cccc(N(C)C(=O)C2C(O)CCN2c2nc(C)cc(C(F)(F)F)c2C#N)c1 (stereo not given) + Cc1cnc(CNC(=O)c2c(=O)c3ccc(N4CCCN(C)CC4)nc3n3c2sc2ccccc23)cn1
IC50 (second compound 0.0316 µM): > 10 µM
IC50 (second compound 0.1 µM): > 10 µM
IC50 (second compound 0.316 µM): > 10 µM
IC50 (second compound 1 µM): > 10 µM
IC50 (second compound 3.16 µM): > 10 µM
IC50 (second compound 10 µM): > 10 µM
viability, T/C [1]: 89.8%
viability, T/C [2]: 75.8%
viability, T/C [3]: 90.8%
viability, T/C [4]: 84.7%
viability, T/C [5]: 98.8%
viability, T/C [6]: 92.8%
viability, T/C [7]: 75.4%
viability, T/C [8]: 78.2%
viability, T/C [9]: 80.1%
viability, T/C [10]: 88.6%
viability, T/C [11]: 80.2%
viability, T/C [12]: 82.5%
viability, T/C [13]: 77.2%
viability, T/C [14]: 72.1%
viability, T/C [15]: 81.9%
viability, T/C [16]: 76.4%
viability, T/C [17]: 86.4%
viability, T/C [18]: 84.8%
viability, T/C [19]: 73.5%
viability, T/C [20]: 79.1%
viability, T/C [21]: 85.6%
viability, T/C [22]: 79.5%
viability, T/C [23]: 77.6%
viability, T/C [24]: 87.4%
viability, T/C [25]: 65.7%
viability, T/C [26]: 69.8%
viability, T/C [27]: 70%
viability, T/C [28]: 56.6%
viability, T/C [29]: 79%
viability, T/C [30]: 71%
viability, T/C [31]: 69.9%
viability, T/C [32]: 63.3%
viability, T/C [33]: 73.9%
viability, T/C [34]: 69%
viability, T/C [35]: 66.5%
viability, T/C [36]: 79.3%
